Experimental findings from paper PMC7247683, “Molecular Drug Discovery of Single Ginsenoside Compounds as a Potent Bruton’s Tyrosine Kinase Inhibitor” (International Journal of Molecular Sciences, 2020) are described below.

The term IC50 denotes the concentration at which inhibition is half-maximal.

SMILES strings stand for the structures. Read-outs that look alike come from different tables or passages of the source.

Data set [1] in a line: Solubility characterization in RPMI medium (absorbance at 540 nm, transparency). Details: key to absorbance at 540 nm increased compared to the control / absorbance at 540 nm decreased compared to the control / absorbance at 540 nm reduced compared to the control: difference in OD at 540 nm vs untreated medium control. In kind it is physicochemical. From the text:
In spite of the promising pharmaceutical efficacies of the ginsenoside compounds, the therapeutic potential of ginsenosides is largely restricted by their lowering bioavailability when orally distributed (< 5%) due to their undesirable physicochemical properties, such as low water solubility, low biomembrane permeability, instability in the gastrointestinal fluid, and extensive body metabolism. Depending on the solubility of each candidate substance, the black text under the plate is clearly visible when dissolved well. Since UV/vis absorbance spectra-based turbidimetry has the advantage of being fast and non-destructive in common drug solubility tests, a determination of their turbidity or optical density (OD) in liquid cultures was employed to monitor the water-solubility of the ginsenoside candidates. The λmax of the UV/vis absorbance spectra of the ginsenoside compounds and their Roswell Park Memorial Institute (RPMI) medium were identical at 540 nm, and the difference in OD between the absorbances of the ginsenosides and the media, used only as a control, was plotted (Figure 4). The increased absorbance signals of the PPT and PPD were derived from the increased OD signal of turbidity-based interference by insoluble compounds in the medium. The corresponding UV/vis absorbance results of each candidate substance in the media is discussed as follows:
To determine the concentration of ginsenoside compounds to be treated on the cells, the solubility of each compound in RPMI-1640 medium was evaluated. Specifically, the solubility of each ginsenoside compound was observed by UV/vis absorbance at 540 nm, and the transparency of the medium was measured by the visually observed degree to which the marked black text at the bottom of the plate was visible (transparency of the medium). In addition, the change in absorbance at 540 nm compared to the control was measured by using the medium not treated with the ginsenoside compound as a control.

Another data set deals with purified BTK (Homo sapiens, UniProt Q06187). Description: FRET-based kinase assay (Z'-LYTE) for BTK inhibition. The class given is biochemical. As to conditions: 0.625 μg/mL purified BTK; for BTK inhibitory effect (inhibition %): 25, 50, and 100 μg/mL, depending on the concentration; for IC50: FRET assay. As to the method:
For the identification of the BTK inhibitory activity of ginsenoside-derived candidate substances and the screening of them to show pharmacological efficacy, the BTK-inhibitory activity of ginsenoside compounds and their in vitro BTK inhibitory activity was measured as the inhibition rate (inhibition %) of the decreased phosphorylation rate compared to the BTK activity without ginsenoside treatment in a FRET assay.
In order to evaluate the BTK inhibitory activity of the ginsenoside compound, a kinase assay using a Z’-LYTE Kinase Assay Kit from Thermo Fisher Scientific was performed. A fluorescent microplate reader was used to measure the Fluorescence Resonance Energy Transfer (FRET) between coumarin and fluorescein dyes. The assay was optimized for BTK, as described in the manufacturer’s protocol. The BTK activity (%) was evaluated by measuring the ratio of the emission signal (445 nm/520 nm) according to the phosphorylation % of the substrate by BTK.

For data set [2], the target named is T1, BTK (Homo sapiens, UniProt Q06187).
T1 construct: host or cells: Ramos cells
The data set can be described thus: Cell-based phosphorylation ELISA, p-BTK/BTK in Ramos cells. As to conditions: for BTK inhibitory activity (p-BTK/BTK, ELISA), in words: compared to Ibrutinib or the DMSO-treated group. The text has this:
Although BTK is almost constant in cells, the expression level of p-BTK varies depending on the degree of BTK activation and inhibition, and thus the expression level of p-BTK is based on the expression of BTK (p-BTK/BTK).
When BTK is activated or inhibited, the phosphorylation % of BTK is increased or decreased accordingly, which can be confirmed by the amount of phosphorylated BTK in the cell. After treating the ginsenoside compound on the cells, the amount of BTK inhibition of the ginsenoside compound was compared and analyzed by the amount of phosphorylated BTK in the cell. […] The BTK to GAPDH expression ratio was confirmed.
The Ramos cells (~1 × 10^4) were cultured in 96-well cell culture plates. […] Free DMSO was used as a negative control group. […] The expression level of each p-BTK and the expression level of BTK were compared and analyzed using the ratios (p-BTK/GAPDH and BTK/GAPDH) based on the expression level of each […]. Namely, the p-BTK/BTK ratio means the (p-BTK/GAPDH)/(BTK/GAPDH) ratio, which is simply expressed as p-BTK/BTK.
A general note: ELISA stands for enzyme-linked immunosorbent assay.

For data set [3], the target named is T1, BTK. The data set can be described thus: Western blotting, p-BTK/BTK in Ramos cells. The class given is cell-based. As to conditions: α-IgM stimulated, stimulation (α-IgM antibody (+), DMSO) group as reference (100%). As to the method: The Ramos cells (~3 × 10^6) were famished of serum for 1 h and treated with ginsenosides for 1 h, and then washed with phosphate-buffered saline (Welgene, Korea), followed by stimulation with 1 μg/mL of goat F(ab’)2 anti-human IgM (Southern Biotech, Birmingham, AL, USA) for 10 min on ice. The cells were then lysed in a radioimmunoprecipitation assay (RIPA) buffer (Sigma-Aldrich, St. Louis, MO, USA) and the proteins were separated by SDS-PAGE (Bio-Rad Laboratories, Hercules, CA, USA) and transferred to polyvinylidene fluoride membranes (EMD Millipore, Billerica, MA, USA). The proteins were detected with anti-BTK Y223 (Cell Signaling Technology, Danvers, MA, USA), anti-BTK (53/BTK, Cell Signaling Technology) and anti-glyceraldehyde 3-phosphate dehydrogenase (anti-GAPDH) (Santa Cruz Biotechnology, Santa Cruz, CA, USA) antibodies. The protein signals were monitored by chemiluminescence using Enhanced ChemiLuminescence (ECL) western blotting detection reagent (EMD Millipore), and the scanned blots were quantified using a Multi-Image analyzer (Fujifilm, Japan). The phosphorylation % of each lane was determined using Multi-Gauge software (Fujifilm). The IC50 value was measured using control α-IgM+ set at 100% and control α-IgM− set at 0%.
The Ramos cells (~3 × 10^6) were cultured in 6-well cell culture plates. Both the control and ginsenoside compounds were dissolved in DMSO. For the Western blotting, the α-IgM- groups and α-IgM+ groups in the presence of DMSO were used as the non-stimulation control and stimulation control, respectively, following by the quantitation of the expression ratio of p-BTK, BTK, and β-tubulin. The expression level of each p-BTK and the expression level of BTK were compared and analyzed using the ratios (p-BTK/β-tubulin and BTK/β-tubulin) based on the expression level of each β-tubulin. Namely, the p-BTK/BTK ratio means the (p-BTK/β-tubulin)/(BTK/β-tubulin) ratio, which is simply expressed as p-BTK/BTK.
In general terms: In western blotting, separated proteins are transferred to a membrane and probed.

[4] abbreviates: read-out: IC50 levels that inhibited BTK activity.
Setting [5] is: solubility-dependent concentration.

Chain of purified BTK (Q06187 whole entry): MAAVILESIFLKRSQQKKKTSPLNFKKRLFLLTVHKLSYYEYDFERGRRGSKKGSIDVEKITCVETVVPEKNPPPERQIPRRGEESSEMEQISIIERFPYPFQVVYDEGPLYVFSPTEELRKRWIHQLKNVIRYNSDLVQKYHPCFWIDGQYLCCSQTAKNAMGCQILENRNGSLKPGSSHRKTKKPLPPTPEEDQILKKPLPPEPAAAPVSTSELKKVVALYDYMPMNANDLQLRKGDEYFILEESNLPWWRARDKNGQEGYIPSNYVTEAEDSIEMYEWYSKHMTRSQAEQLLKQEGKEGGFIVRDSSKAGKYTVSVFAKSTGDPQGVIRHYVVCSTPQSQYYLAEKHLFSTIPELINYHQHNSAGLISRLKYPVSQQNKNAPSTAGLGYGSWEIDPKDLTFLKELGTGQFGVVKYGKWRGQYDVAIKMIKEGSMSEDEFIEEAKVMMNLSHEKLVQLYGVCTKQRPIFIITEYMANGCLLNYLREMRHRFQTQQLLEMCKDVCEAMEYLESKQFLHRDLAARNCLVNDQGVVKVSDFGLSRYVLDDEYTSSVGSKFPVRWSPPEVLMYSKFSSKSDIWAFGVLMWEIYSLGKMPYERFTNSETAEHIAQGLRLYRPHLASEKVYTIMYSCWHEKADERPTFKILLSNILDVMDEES
T1 sequence (Q06187 whole entry): as above

With `CC(C)=CCCC(C)(O)C1CCC2(C)C1C(O)CC1C3(C)CCC(OC4OC(CO)C(O)C(O)C4O)C(C)(C)C3CCC12C` (stereo not drawn) [Rh2], the “absorbance at 540 nm increased compared to the control” value (“absorbance at 540 nm increased” for short) in data set [1] (0.4 mM in RPMI medium) was determined as 0.037; in data set [1] (0.6 mM in RPMI medium), 0.111; in data set [1] (1.2 mM in RPMI medium) it was 0.271. Moreover, the “appearance / solubility in the medium” value in data set [1] (1.2 mM in RPMI medium) was “slightly soluble”. The “solubility in the medium, overall” value in data set [1] (RPMI medium) is given as “soluble in the medium at a low concentration, while insoluble at a high concentration”. Besides, the “BTK inhibitory effect (inhibition %)” value on purified BTK is on record as at least 70%. The same compound registered an IC50 at purified BTK (IC50 levels that inhibited BTK activity) of 61.1 µM.
`CC(C)=CCCC(C)(OC1OC(COC2OCC(O)C(O)C2O)C(O)C(O)C1O)C1CCC2(C)C1C(O)CC1C3(C)CCC(OC4OC(CO)C(O)C(O)C4OC4OC(CO)C(O)C(O)C4O)C(C)(C)C3CCC12C` (stereo not drawn) [Rb3]: in data set [1] (0.9 mM in RPMI medium), the “absorbance at 540 nm increased” value is on record as 0.047 and the “appearance / solubility in the medium” value is reported as “transparent”. Besides, the “absorbance at 540 nm reduced compared to the control” value in data set [1] (2.7 mM in RPMI medium) is on record as 0.004. The “solubility in the medium, overall” value in data set [1] (RPMI medium) was “soluble in the medium at a high concentration”. Further, the “BTK inhibitory effect (inhibition %)” value on purified BTK was at least 70%. Besides, the IC50 at purified BTK (setting [4]) came out at 51 µM. Besides, at BTK [2] (setting [5]), the “BTK inhibitory activity (p-BTK/BTK, ELISA)” value was above 23% and the “BTK inhibitory activity (p-BTK/BTK, ELISA), in words” value is recorded as “substantial BTK inhibitory activity”. For the same compound, the “BTK inhibitory activity (p-BTK/BTK, Western blotting)” value on BTK [3] was ~ 17%.
As for `CC(C)=CCCC(C)(O)C1CCC2(C)C1C(O)CC1C3(C)CCC(O)C(C)(C)C3CCC12C` (stereo not drawn) [PPD, protopanaxadiol], in data set [1], the “appearance / solubility in the medium” value is on record as “turbid”. Moreover, the “solubility in the medium, overall” value in data set [1] is “poorly soluble in the medium at higher concentrations”. Also, the “absorbance at 540 nm increased” value in data set [1] (0.2 mM) was 0.155; in data set [1] (0.5 mM), 0.442; in data set [1] (1 mM) it was 0.835; in data set [1] (1.5 mM), 1.153. Besides, the “BTK inhibitory activity (p-BTK/BTK, ELISA)” value at BTK [2] (at low concentrations) was found to be 9.58%. For the same compound, the “BTK inhibitory activity (p-BTK/BTK, ELISA), in words” value on BTK [2] (setting [5]) is listed as “substantial BTK inhibitory activity”. Further, the “BTK inhibitory activity (p-BTK/BTK, Western blotting)” value on BTK [3] is “about 40%”.
As for `CC(C)=CCC[C@](C)(O)[C@H]1CC[C@]2(C)[C@@H]1[C@H](O)C[C@@H]1[C@@]3(C)CC[C@H](O)C(C)(C)[C@@H]3[C@@H](O)C[C@]12C` [PPT, protopanaxatriol], in data set [1], the “appearance / solubility in the medium” value is “intensively turbid”. Also, the “solubility in the medium, overall” value in data set [1] is recorded as “poorly soluble in the medium at higher concentrations”. The entries for the “absorbance at 540 nm increased” value in data set [1] (0.5 mM), in data set [1] (0.8 mM) and in data set [1] (1.7 mM) were 0.309, 0.508 and 1.118, respectively. In addition, at purified BTK, the “BTK inhibitory effect (inhibition %)” value is on record as at least 70%. For the same compound, the IC50 on purified BTK (setting [4]) was 136 µM. Besides, the “BTK inhibitory activity (p-BTK/BTK, ELISA)” value on BTK [2] (at low concentrations) worked out at 15.98%. Further, the “BTK inhibitory activity (p-BTK/BTK, ELISA), in words” value on BTK [2] (setting [5]) is “substantial BTK inhibitory activity”. In addition, the “BTK inhibitory activity (p-BTK/BTK, Western blotting)” value at BTK [3] is given as “about 30%”.
On to `CC(C)=CCCC(C)(OC1OC(COC2OCC(O)C(O)C2O)C(O)C(O)C1O)C1CCC2(C)C1C(O)CC1C3(C)CCC(OC4OC(CO)C(O)C(O)C4OC4OC(CO)C(O)C(O)C4O)C(C)(C)C3CCC12C` (stereo not drawn) [Rb2], for which, in data set [1] (0.2 mM in RPMI medium), the “absorbance at 540 nm increased” value was 0.042 and the “appearance / solubility in the medium” value is given as “transparent”. Also, the “absorbance at 540 nm decreased compared to the control” value in data set [1] (0.6 mM in RPMI medium) is recorded as 0.007. For the same compound, the “absorbance at 540 nm decreased compared to the control” value in data set [1] (1.0 mM in RPMI medium) is listed as 0.006. For the same compound, the “solubility in the medium, overall” value in data set [1] (RPMI medium) was “soluble in the medium at a high concentration”. Moreover, at purified BTK, the “BTK inhibitory effect (inhibition %)” value is at least 70%. Also, the IC50 on purified BTK (setting [4]) was determined as 9.27 µM. In addition, on BTK [2] (setting [5]), the “BTK inhibitory activity (p-BTK/BTK, ELISA)” value was above 23% and the “BTK inhibitory activity (p-BTK/BTK, ELISA), in words” value was “substantial BTK inhibitory activity”. Moreover, the “BTK inhibitory activity (p-BTK/BTK, Western blotting)” value at BTK [3] is listed as ~ 17%.
